Measured values: patent US20250223303A1, “TRICYCLIC BORONIC ACID DERIVATIVE, AND PREPARATION METHOD THEREFOR AND APPLICATION THEREOF” (priority 2021, published 2025)

Assays:
IMP-1 = molecular target: T1, IMP-1 (Serratia marcescens, UniProt P52699); experiment: Enzyme activity test (FC5 fluorescent substrate), IMP-1; type: biochemical; settings: enzyme 20 pM, substrate FC5 15 μM
T1 construct: purchased GenScript Biotech Co., Ltd
Protocol: (§1) Compound stock solution: the compound was prepared as a 50 mM DMSO stock solution. […] After aliquoting, the compound stock solutions were stored at −20° C.
(§2) Preparation and storage of antibiotic substrate stock solution: antibiotic fluorescent substrate FC5 was synthesized internally and prepared as a 2 mM stock solution, which was stored at −20° C. after aliquoting.
(§3) Storage of β-lactamases: each […] was synthesized by GenScript Biotech Co., Ltd., and stored at −80° C. after aliquoting to avoid repeated freezing and thawing.
(§4) Preparation of enzyme activity reaction buffer: SBL buffer: PBS pH 7.4, 0.01% (v/v) Triton X-100; MBL buffer: 50 Mm HEPES in PBS pH 7.2, 1 μM ZnSO4, 1 μg/mL BSA, 0.010% v/v Triton X-100
(§5) a) The compound to be tested and buffer were taken out and warmed to room temperature.
(§6) b) Each compound was diluted with DMSO and buffer to the initial experimental concentration (Table 2), and then the compound was diluted 3-fold for a total of 10 concentrations.
(§7) c) Diluted compounds were added to wells 1 to 20 of a 384-well black plate at 2 replicate wells per concentration, 5 μL per well. 5 µL of DMSO was added to wells 21 to 24.
(§8) d) Each enzyme was diluted to the experimental concentration (Table 2) in SBL and MBL buffers, and finally 35 μL/well was added, with a total of 22 wells. 35 μL buffer was added to wells 23 to 24. Wells 21 to well 22 served as the maximum test values (Max), while wells 23 to 24 were designated as the minimum test values (Min).
(§9) e) The 384-well plate was centrifuged quickly and incubated for 10 minutes at room temperature.
(§10) f) The antibiotic substrate FC5 was diluted in buffer to the experimental concentration of each enzyme (Table 2).
(§11) g) The incubated 384-well plate was taken out and FC-5 was added to wells […]. The 384-well plate was centrifuged rapidly and promptly transferred to a microplate reader for reading.
(§12) h) The fluorescence intensity was measured at 355 nm excitation light/460 nm emission light in the microplate reader, and the fluorescence intensity was measured every three minutes for a total of 10 measurements.
(§13) Initial velocity of enzyme reaction V: Subtract the background reading (Min wells) without enzyme from each fluorescence intensity reading, and then perform on a linear regression analysis on each compound concentration group. The slope is the initial velocity of enzyme reaction (V) at each compound concentration.
(§14) Dose-effect curve and IC50 calculation of compounds: The initial velocity of enzyme reaction under the effect of each concentration of compounds was subjected to nonlinear regression fitting. The IC50 (half-maximal inhibitory concentration) of each compound was calculated using the formula […] (Vi: the initial velocity of enzyme reaction at each compound concentration; V0: initial velocity of enzyme reaction without the compound (Max wells). The software used was Graphpad prism 8.

VIM-1 = molecular target: T2, VIM-1 (Pseudomonas aeruginosa, UniProt A0A0F7KYQ8); experiment: Enzyme activity test (FC5 fluorescent substrate), VIM-1; type: biochemical; settings: enzyme 70 pM, substrate FC5 10 μM
T2 construct: purchased GenScript Biotech Co., Ltd
Protocol: as §1, §2, §3, §4, §5, §6, §7, §8, §9, §10, §11, §12, §13, §14

KPC-2 = molecular target: T3, KPC-2 (Klebsiella pneumoniae, UniProt Q9F663); experiment: Enzyme activity test (FC5 fluorescent substrate), KPC-2; type: biochemical; settings: enzyme 45 pM, substrate FC5 25 μM
T3 construct: purchased GenScript Biotech Co., Ltd
T3 sequence (Q9F663 25-293 limits assumed): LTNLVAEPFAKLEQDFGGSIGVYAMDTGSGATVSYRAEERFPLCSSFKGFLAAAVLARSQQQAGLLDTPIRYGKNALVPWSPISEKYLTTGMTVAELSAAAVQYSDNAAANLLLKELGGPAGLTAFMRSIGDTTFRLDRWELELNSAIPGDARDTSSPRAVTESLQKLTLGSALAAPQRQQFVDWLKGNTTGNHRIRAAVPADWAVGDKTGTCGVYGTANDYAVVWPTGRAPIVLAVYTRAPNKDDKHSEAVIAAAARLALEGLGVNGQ
Protocol: as §1, §2, §3, §4, §5, §6, §7, §8, §9, §10, §11, §12, §13, §14

Ampc = Ampc (UniProt P24735); experiment: Enzyme activity test (FC5 fluorescent substrate), AmpC; type: biochemical; settings: enzyme 25 pM, substrate FC5 15 μM
Protocol: as §1, §2, §3, §4, §5, §6, §7, §8, §9, §10, §11, §12, §13, §14

OXA-10 = molecular target: T4, OXA-10 (Pseudomonas aeruginosa, UniProt P14489); experiment: Enzyme activity test (FC5 fluorescent substrate), OXA-10; type: biochemical; settings: enzyme 350 pM, substrate FC5 50 μM
T4 construct: purchased GenScript Biotech Co., Ltd
T4 sequence (P14489 20-266): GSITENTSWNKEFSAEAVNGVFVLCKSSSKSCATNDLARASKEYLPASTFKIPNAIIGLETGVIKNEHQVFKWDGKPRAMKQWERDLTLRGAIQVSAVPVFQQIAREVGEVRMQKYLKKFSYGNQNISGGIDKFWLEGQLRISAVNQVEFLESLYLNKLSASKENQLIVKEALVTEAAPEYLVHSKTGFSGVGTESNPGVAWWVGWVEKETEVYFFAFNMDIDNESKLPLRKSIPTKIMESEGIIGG
Protocol: as §1, §2, §3, §4, §5, §6, §7, §8, §9, §10, §11, §12, §13, §14

OXA-23 = molecular target: T5, OXA-23 (Acinetobacter baumannii, UniProt Q9L4P2); experiment: Enzyme activity test (FC5 fluorescent substrate), OXA-23; type: biochemical; settings: enzyme 650 pM, substrate FC5 50 μM
T5 construct: purchased GenScript Biotech Co., Ltd
T5 sequence (Q9L4P2 18-273): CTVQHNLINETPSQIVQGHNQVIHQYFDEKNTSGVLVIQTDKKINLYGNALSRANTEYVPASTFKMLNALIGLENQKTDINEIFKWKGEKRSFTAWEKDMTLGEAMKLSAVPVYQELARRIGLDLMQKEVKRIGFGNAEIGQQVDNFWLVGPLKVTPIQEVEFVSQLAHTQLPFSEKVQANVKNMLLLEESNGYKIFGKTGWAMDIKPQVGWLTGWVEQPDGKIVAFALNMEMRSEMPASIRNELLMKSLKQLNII
Protocol: as §1, §2, §3, §4, §5, §6, §7, §8, §9, §10, §11, §12, §13, §14

[1] = system: Klebsiella pneumoniae ARLG 1196; experiment: MIC test of compounds in combination with antibiotics, Klebsiella pneumoniae ARLG 1196; settings: Klebsiella pneumoniae ARLG-1196 CTM-1 group, SHV, NDM, TEM
[2] = system: Klebsiella pneumoniae ATCC BAA-1705; experiment: MIC test of compounds in combination with antibiotics, Klebsiella pneumoniae ATCC BAA-1705; settings: Klebsiella pneumoniae ATCC BAA-1705 KPC-2
Protocol: Strain preparation: the strains to be tested were streaked from glycerol tube at −80° C. onto Mueller Hinton II Agar plates. The plates were then placed in a 37° C. incubator and cultured for 18-24 hours.
Media preparation: CAMHB (Mueller Hinton II Broth): 22 g of powder was dissolved in 1 L of purified water and sterilized at 121° C. for 10 min for use. Saline: 8.5 g NaCl was dissolved in 1 L of pure water and sterilized at 121° C. for 30 min for use.
Preparation of compound and antibiotic stock solutions: the compound and antibiotic were dissolved in DMSO or water to 12.8 mg/mL.
(§15) 2-Fold gradient dilution of antibiotics: 300 μL of CAMHVIB medium was added to columns 2-12 of a 96-deep well plate. In column 1, 24 μL of antibiotic stock solution and 576 µL of CAMHB medium were added and mixed well, with a concentration of 512 μg/mL. 300 µL of antibiotic solution was transferred from the column 1 to the second column and mixed well. The process was repeated until column 11, and the column 12 was a blank control.
(§16) Dilution of combined compounds: the compound was diluted 400-fold to 32 μg/ml with CAMHB medium.
(§17) Working solution aliquoting: 25 μL of antibiotics was aliquoted into the 96-U bottom plate with a pipette, and 25 μL of combined compound was added to each well. If antibiotics were used alone, 25 μL of CAMHB medium was added.
(§18) Inoculum solution preparation: 5-6 single colonies were selected from the plate and suspended in normal saline. The bacterial suspension was adjusted to 0.2 (i.e., 0.5 McFarland turbidity, with a bacterial concentration was about 1 to 2×10^8 CFU/mL) with a turbidity meter. The bacterial suspension was diluted 100-fold with CAMHB medium for later use.
(§19) Inoculation: 50 μL of inoculum solution was transferred to the above 50 μL compound plate with a pipette.
(§20) Culture: The 96-U bottom plate was placed in an incubator at 37° C. for 18 to 20 h.
After the incubation, bacterial growth was visually observed, and the test plate was photographed and recorded.

[3] = system: Acinetobacter baumannii WX-AB005; experiment: MIC test of compounds in combination with antibiotics, Acinetobacter baumannii WX-AB005; settings: Acinetobacter baumannii WX-AB005
Protocol: as §15, §16, §17, §18, §19, §20

[4] = system: Acinetobacter baumannii WX-AB013; experiment: MIC test of compounds in combination with antibiotics, Acinetobacter baumannii WX-AB013; settings: Acinetobacter baumannii WX-AB013
Protocol: as §15, §16, §17, §18, §19, §20

[5] = system: Acinetobacter baumannii ARLG-1791 OXA-23; experiment: MIC test of compounds in combination with antibiotics, Acinetobacter baumannii ARLG-1791; settings: Acinetobacter baumannii ARLG-1791 OXA-23
Protocol: as §15, §16, §17, §18, §19, §20

[6] = system: Acinetobacter baumannii ARLG-1809 OXA-23; experiment: MIC test of compounds in combination with antibiotics, Acinetobacter baumannii ARLG-1809; settings: Acinetobacter baumannii ARLG-1809 OXA-23
Protocol: as §15, §16, §17, §18, §19, §20

[7] = system: Acinetobacter baumannii ARLG-1852 OXA-23; experiment: MIC test of compounds in combination with antibiotics, Acinetobacter baumannii ARLG-1852; settings: Acinetobacter baumannii ARLG-1852 OXA-23
Protocol: as §15, §16, §17, §18, §19, §20

[8] = system: Acinetobacter baumannii ARLG-1853 OXA-23; experiment: MIC test of compounds in combination with antibiotics, Acinetobacter baumannii ARLG-1853; settings: Acinetobacter baumannii ARLG-1853 OXA-23
Protocol: as §15, §16, §17, §18, §19, §20

[9] = system: carbapenem-resistant Acinetobacter baumannii strains; experiment: MIC test of compounds in combination with antibiotics, resistant Acinetobacter baumannii strains; settings: all resistant strains of Acinetobacter baumannii

T1 sequence (P52699 19-246 limits assumed): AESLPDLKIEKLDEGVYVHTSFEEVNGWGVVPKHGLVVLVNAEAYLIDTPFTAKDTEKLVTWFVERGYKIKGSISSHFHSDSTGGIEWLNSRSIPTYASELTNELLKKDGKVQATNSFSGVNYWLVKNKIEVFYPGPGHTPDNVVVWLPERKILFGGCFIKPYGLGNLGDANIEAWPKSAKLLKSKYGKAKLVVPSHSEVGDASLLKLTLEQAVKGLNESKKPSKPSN

In the case of `NCCNC1CCC(CC(=O)N[C@H]2Cc3cccc(C(=O)O)c3OB2O)CC1` (some centres unmarked) [VNRX-5133, reference compound], the IC50 (IMP-1) is reported as > 10000 nM, the IC50 (VIM-1) is reported as 33 nM and the IC50 (KPC-2) is reported as 64.2 nM. The IC50 (Ampc) was 857 nM, the IC50 (OXA-10) was 463 nM and the IC50 (OXA-23) was > 10000 nM. It also gave an MIC ([1]; Cefepime + compound (8 μg/mL)) of 1 µg/mL, an MIC ([1]; Meropenem + compound (8 μg/mL)) of 1 µg/mL and an MIC ([2]; Cefepime + compound (8 μg/mL)) of 0.25 µg/mL. It also gave an MIC ([2]; Meropenem + compound (8 μg/mL)) of 0.125 µg/mL, an MIC ([3]; Cefepime + compound (8 μg/mL)) of 128 µg/mL and an MIC ([3]; Meropenem + compound (8 μg/mL)) of 128 µg/mL. For the same compound, the MIC ([4]; Cefepime + compound (8 μg/mL)) was 64 µg/mL, the MIC ([4]; Meropenem + compound (8 μg/mL)) was 128 µg/mL and the MIC ([5]; Cefepime + compound (8 μg/mL)) was 16 µg/mL. It also gave an MIC ([5]; Meropenem + compound (8 μg/mL)) of 128 µg/mL, an MIC ([6]; Cefepime + compound (8 μg/mL)) of 32 µg/mL and an MIC ([6]; Meropenem + compound (8 μg/mL)) of 128 µg/mL. For the same compound, the MIC ([7]; Cefepime + compound (8 μg/mL)) was 32 µg/mL, the MIC ([7]; Meropenem + compound (8 μg/mL)) was 128 µg/mL and the MIC ([8]; Cefepime + compound (8 μg/mL)) was 32 µg/mL. The MIC ([8]; Meropenem + compound (8 μg/mL)) was 128 µg/mL and the MIC of the combination with cefepime/meropenem [9] was > 32 µg/mL.
